Reference: publication PMC8087159 (Bioconjugate chemistry, 2021)
Entries after “also recorded” stand apart in the source; their conditions may differ. Like-named read-outs stand apart in the source and are kept apart here.

Columns and labels:
[1] = test system: Caco-2 cell monolayer; test: Caco-2 cell monolayer transport; format: in vitro ADME, human; conditions: 500 μM in PBS pH 6 on apical side, 37 °C, within 24 h; compared with Ret-NH2
[2] = test system: ARPE19 cells; test: ARPE19 cell uptake; format: in vitro ADME, human; conditions: 10 μM, 16 h; compared with Ret-NH2
[3] = biological target: RPE65 (Bos taurus, UniProt Q28175); test: RPE microsome retinoid isomerase assay; format: biochemical, Bovine; conditions: RPE microsomes, 0.5–10 μM compound, 10 μM all-trans-retinol, 1 h
[4] = 3.5 μmol per mouse oral gavage; for original drug in the eye / liver accumulation of N-retinylamides: 2 and 16 h; for N-retinylamides in the eye: 16 h
[5] = Storage stability; format: physicochemical
[6] = test system: light-induced retinal degeneration in Abca4^−/−Rdh8^−/− mice; test: Retinal histology; format: in vivo; conditions: drug before intense light exposure; 7 days after light exposure
[7] = biological target: T1, RPE65 (Homo sapiens, UniProt Q16518); format: cell-based; conditions: NIH3T3 cells, 4.5 μM drug, 10 μM all-trans-retinol, 16 h
T1 sequence (Q16518 1-533): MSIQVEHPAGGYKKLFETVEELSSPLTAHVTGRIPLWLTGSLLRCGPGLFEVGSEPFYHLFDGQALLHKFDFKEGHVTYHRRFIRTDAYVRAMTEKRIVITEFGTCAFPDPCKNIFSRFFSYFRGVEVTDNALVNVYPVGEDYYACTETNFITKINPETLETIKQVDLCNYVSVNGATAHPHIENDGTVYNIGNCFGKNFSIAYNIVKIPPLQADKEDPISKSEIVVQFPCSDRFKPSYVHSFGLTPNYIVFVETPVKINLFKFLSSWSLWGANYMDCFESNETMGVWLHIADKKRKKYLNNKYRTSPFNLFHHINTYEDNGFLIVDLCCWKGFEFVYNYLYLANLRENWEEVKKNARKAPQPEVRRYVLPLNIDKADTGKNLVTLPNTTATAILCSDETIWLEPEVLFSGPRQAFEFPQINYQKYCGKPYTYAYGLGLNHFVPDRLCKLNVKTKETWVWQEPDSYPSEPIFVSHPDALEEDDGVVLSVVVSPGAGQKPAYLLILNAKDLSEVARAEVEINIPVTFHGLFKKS

[8] = biological target: T2, RPE65 (Mus musculus, UniProt Q91ZQ5); test: In vivo RPE65 inhibition; conditions: 1.75 μmol/mouse oral gavage 16 h before bleach 10 min at 7000 lx; 24 h in the dark
T2 sequence (Q91ZQ5 2-533): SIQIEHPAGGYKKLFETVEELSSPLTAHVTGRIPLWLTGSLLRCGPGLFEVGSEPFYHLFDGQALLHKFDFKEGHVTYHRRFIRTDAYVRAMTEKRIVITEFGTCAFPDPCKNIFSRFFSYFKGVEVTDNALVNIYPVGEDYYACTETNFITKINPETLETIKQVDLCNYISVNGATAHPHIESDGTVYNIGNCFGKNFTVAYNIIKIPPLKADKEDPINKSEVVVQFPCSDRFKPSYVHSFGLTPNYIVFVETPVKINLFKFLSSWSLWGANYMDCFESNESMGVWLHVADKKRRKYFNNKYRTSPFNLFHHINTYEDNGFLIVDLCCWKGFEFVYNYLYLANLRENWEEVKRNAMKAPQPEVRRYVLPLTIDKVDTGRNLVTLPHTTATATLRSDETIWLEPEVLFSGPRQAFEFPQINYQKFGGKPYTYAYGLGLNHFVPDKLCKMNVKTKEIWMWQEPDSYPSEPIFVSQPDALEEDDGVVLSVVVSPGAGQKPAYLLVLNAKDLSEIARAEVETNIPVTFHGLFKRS

[9] = test system: retinal function of C57BL/6J WT mice; test: ERG scotopic a-waves in wild-type mice after drug treatment; format: in vivo; conditions: 1.75 μmol per mouse gastric gavage 16 h prior to ERG
[10] = test system: light-induced retinal degeneration in Abca4^−/−Rdh8^−/− mice; test: ERG scotopic a-waves after light-induced retinal degeneration; conditions: 1.9 μmol/mouse gastric gavage 16 h prior to light illumination; measured 7 days after drug administration and illumination
[11] = cited from earlier work
[12] = mouse, in vivo, po

RPE65 (Bos taurus, UniProt Q28175), sequence (Q28175 whole entry): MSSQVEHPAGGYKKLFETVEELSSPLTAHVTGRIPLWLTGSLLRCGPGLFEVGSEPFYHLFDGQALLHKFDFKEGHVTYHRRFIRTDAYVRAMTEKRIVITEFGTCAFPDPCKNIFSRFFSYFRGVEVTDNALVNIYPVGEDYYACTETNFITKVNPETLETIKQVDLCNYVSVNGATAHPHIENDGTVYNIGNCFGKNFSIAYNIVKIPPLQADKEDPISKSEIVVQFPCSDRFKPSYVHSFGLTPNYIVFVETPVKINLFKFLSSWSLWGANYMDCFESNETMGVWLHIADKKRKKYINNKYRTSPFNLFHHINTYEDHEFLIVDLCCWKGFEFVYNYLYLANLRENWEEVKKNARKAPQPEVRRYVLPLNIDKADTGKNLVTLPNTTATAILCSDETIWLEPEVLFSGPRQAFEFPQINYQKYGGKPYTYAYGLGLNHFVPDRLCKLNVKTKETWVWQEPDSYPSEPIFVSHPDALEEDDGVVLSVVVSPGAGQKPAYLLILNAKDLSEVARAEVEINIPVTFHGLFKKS

## CC1=C(/C=C/C(C)=C/C=C/C(C)=C/CNC(=O)[C@@H](N)Cc2ccccc2)C(C)(C)CCC1 [RF]
[1]
  transport through the Caco-2 monolayer: significantly higher transport
[2]
  uptake by ARPE19 cells: higher uptake
[3]
  inhibition of RPE65 activity (11-cis-retinol production): minor inhibitory effects
[4]
  original drug in the eye: detected only at 2 h
  N-retinylamides in the eye: comparable to that of Ret-NH2

## CC1=C(/C=C/C(C)=C/C=C/C(C)=C/CNC(=O)CNC(=O)[C@@H](N)C(C)C)C(C)(C)CCC1 [RVG, Ret-NH2-L-valylglycine amide]
[5]; stored in a desiccator under vacuum at room temperature for 2 months
  degradation on storage: Less than 5%
[6]
  retinal structure by histology (H&E): maintained an intact retinal structure
[1]
  transport through the Caco-2 monolayer: significantly higher transport
[2]
  uptake by ARPE19 cells: higher uptake
[3]
  inhibition of RPE65 activity (11-cis-retinol production): did not affect significant inhibition; also recorded: no inhibitory effect
[7]
  11-cis-retinol production: easily detected
[8]
  regeneration of 11-cis-retinal in the eye: greater regeneration of 11-cis-retinal
[9]
  recovery of retinal function (ERG): rapid recovery of retinal function
[4]
  liver accumulation of N-retinylamides: lower liver accumulations of N-retinylamides than did RF and RL
  original drug in the eye: detected only at 16 h
  N-retinylamides in the eye: no detectable N-retinylamides

## Emixustat-L-Val-Gly amide [EVG]
[10]
  ERG activities (scotopic a-waves): only slight decrease of ERG activities

## Nc1nc2c(ncn2COCCO)c(=O)[nH]1 [acyclovir]
[11]; in vivo, po
  oral bioavailability (Fo): ~ 16%

## CC1=C(/C=C/C(C)=C/C=C/C(C)=C/CN)C(C)(C)CCC1 [Ret-NH2, Retinylamine, reference compound]
[5]; desiccator under vacuum at room temperature, within 1 week
  decomposed on storage: 95%
[3]
  inhibition of RPE65 activity (11-cis-retinol production): concentration-dependent inhibition
[7]
  11-cis-retinol production: virtually ablated 11-cis-retinol production
[8]
  regeneration of 11-cis-retinal in the eye: much lower concentration of 11-cis-retinal than the untreated controls
[4]
  original drug in the eye: No Ret-NH2 was detected at 2 and 16 h in the eye
[4]; 2 h
  N-retinylamide concentration in liver: much higher liver concentrations

## COc1ccc(OC)c(C(O)CN)c1 (stereo not drawn) [desglymidodrine]
[11]; desglymidodrine to midodrine
  oral bioavailability: 50%

## CC1=C(/C=C/C(C)=C/C=C/C(C)=C/CNC(=O)CN)C(C)(C)CCC1 [RG]
[4]
  liver accumulation of N-retinylamides: lower liver accumulations of N-retinylamides than did RF and RL
  original drug in the eye: detected in the eyes at 2 and 16 h at relatively high concentrations
  N-retinylamides in the eye: comparable to that of Ret-NH2

## CC1=C(/C=C/C(C)=C/C=C/C(C)=C/CNC(=O)[C@@H](N)C(C)C)C(C)(C)CCC1 [RV]
[12]
  N-retinylamides in the eye: no detectable N-retinylamides
  liver accumulation of N-retinylamides: lower liver accumulations of N-retinylamides than did RF and RL
  original drug in the eye: detected in the eyes at 2 and 16 h at relatively high concentrations

## CC1=C(/C=C/C(C)=C/C=C/C(C)=C/CNC(=O)[C@@H](N)CC(C)C)C(C)(C)CCC1 [RL]
[4]
  original drug in the eye: detected only at 2 h
  N-retinylamides in the eye: comparable to that of Ret-NH2
